Ends that are not written are not given here.

Assay [1] deals with PBMC from DENV seropositive HLA matched human donors. As to the kind of experiment: IFNγ ELISPOT of human PBMC restimulated 7 days with peptide and IL2. It is filed as cell-based. The following applies: responding B*0702 matched donors (out of 5).
Method: To evaluate the antigenicity of the epitopes in humans, 2×10^6 PBMC/ml were stimulated in the presence of 1 μg/ml individual peptide for 7 days. Cells were cultured at 37° C., 5% CO2, and recombinant IL2 (10 U/mL, eBiosciences, San Diego, Calif.) was added 3 days after antigenic stimulation. After one week, PBMC were harvested and tested at a concentration of 1×10^5/well in an IFNγ ELISPOT assay, as described above. […] To be considered positive, IFNγ responses needed to exceed the threshold set as the mean responses of HLA non-matched and DENV seronegative donors plus 3 times the standard deviation.
Assay [2] deals with PBMC of healthy adult blood donors from Colombo, Sri Lanka. Nature of the assay: Ex vivo IFNγ ELISPOT, HLA-matched PBMC of Sri Lankan blood donors. It is filed as cell-based, human. Further details: Total Response per epitope: unit not given here.
For assay [3], the system named is splenic CD4+ T cells from DENV3 (D3S5CX) infected DRB1*0101 transgenic IFN-α/βR−/− mice. Nature of the assay: IFNγ ELISPOT, CD4+ T cells of DENV3 (D3S5CX) infected DRB1*0101 transgenic IFN-α/βR−/− mice. It is filed as cell-based, mouse. The following applies: day 7 after DENV3 D3S5CX, SFC/10^6 T cells.
Assay [4] concerns the target T1, HLA DRB1*0101 (Homo sapiens, UniProt P01903+P01911, A100R/D57E/F55L/F60I/F76Y/I96L/L162R/M171V/P40L/Q125E/R42F/V115G/Y59C).
T1 construct: made in house
As to the kind of experiment: MHC peptide-binding assay, purified DRB1*0101.

Assay [5] deals with HLA B*4001 (Homo sapiens, UniProt P01889, A65T/A93T/A95T/D138N/D98Y/E176V/E69K/N87E/Q56L/Q94N/R180L/S121R/S35A/S48T/T167S/V36M/W171L/Y33H/Y91S). As to the kind of experiment: MHC peptide-binding assay, purified B*4001.
From the text: The non-transfected cell line was used as a negative control. […] The LG2 cell line was used as a negative control.
Assay [6] relates to DENV2 (S221). As to the kind of experiment: Peptide immunization and DENV2 challenge, DENV2 RNA by real-time RT-PCR. It is filed as in vivo, mouse. As to conditions: immunization with the four H-2^b peptides together; day 4 after S221 infection. As for the experimental part:
Mice were euthanized by isoflurane inhalation and blood was collected via cardiac puncture. Serum was separated from whole blood by centrifugation in serum separator tubes (Starsted) Small intestines were put into PBS, flushed, filleted, chopped into small pieces, and put into RNAlater (Qiagen). Other organs were immediately placed into RNAlater and all organs were subsequently homogenized for 3 min in 1 ml tissue lysis buffer (Qiagen Buffer RLT) using a Mini-Beadbeater-8 (BioSpec Products) or QiagenTissueLyser Immediately after homogenization, all tissues were centrifuged (5 min, 4° C., 16,000×g) to pellet debris, and RNA was isolated using the RNeasy Mini Kit (Qiagen). Serum RNA was isolated using the QIAamp Viral RNA Mini Kit (Qiagen). After elution, viral RNA was stored at −80° C. Quantitative RT-PCR was performed according to a published protocol (Houng et al., J Virol Methods 86:1-11 (2000)), except a MyiQ Single-Color Real-Time PCR Detection System (Bio-Rad) with One-Step qRT-PCR Kit (Quanta BioSciences) were used. […] After transcription, DNA was digested with DNase I, and RNA was purified using the RNeasy Mini Kit and quantified by spectrophotometry. To control for RNA quality and quantity when measuring DENV in tissues, the level of 18S rRNA was measured using 18S primers described previously (Lacher, et al., Cancer Res 66:1648 (2006)) in parallel real-time RT-PCR reactions. […]
A general note: Real-time PCR tracks product formation cycle by cycle.

`CC[C@H](C)[C@H](NC(=O)CNC(=O)[C@H](CCC(=O)O)NC(=O)[C@@H]1CCCN1C(=O)[C@@H](N)[C@@H](C)O)C(=O)N[C@H](C(=O)N1CCC[C@H]1C(=O)N[C@@H](CO)C(=O)N[C@@H](CCSC)C(=O)N[C@@H](Cc1ccccc1)C(=O)O)[C@@H](C)CC` [NS31978-1987]: the frequency in humans in assay [1] was 20% (1 out of 5). In addition, the “Total Response per epitope” value in assay [2] (IFNγ ELISPOT response summed over responding donors, per epitope) is 1771.7. Also, the “# donors responded” value in assay [2] (number of donors responding to the epitope, HLA-matched PBMC, proteome-wide screen) amounted to 7. In assay [2] (per epitope, ex vivo IFNγ SFC/10^6 PBMC), the “T cell response [SFC]” value was determined as 1772 SFC. Besides, the “# of responders” value in assay [2] (responding donors, HLA allele(s)) was 7.
Regarding `CSCC[C@H](NC(=O)[C@H](CCCNC(=N)N)NC(=O)[C@@H]1CCCN1C(=O)[C@@H](N)[C@@H](C)O)C(=O)N[C@@H](CS)C(=O)N[C@H](C(=O)N[C@@H](CCCNC(=N)N)C(=O)N[C@@H](CCC(=O)O)C(=O)N[C@@H](CCC(=O)O)C(=O)N[C@@H](Cc1ccccc1)C(=O)O)[C@@H](C)O` [NS52885-2894], the frequency in humans in assay [1] was 60% (3 out of 5).
On to `CC[C@H](C)[C@H](NC(=O)[C@H](C)NC(=O)[C@@H](N)CCCNC(=N)N)C(=O)N[C@@H](Cc1c[nH]c2ccccc12)C(=O)N[C@@H](Cc1ccc(O)cc1)C(=O)N[C@@H](CCSC)C(=O)N[C@@H](Cc1c[nH]c2ccccc12)C(=O)N[C@@H](CC(C)C)C(=O)NCC(=O)N[C@@H](C)C(=O)N[C@@H](CCCNC(=N)N)C(=O)N[C@@H](Cc1ccc(O)cc1)C(=O)N[C@@H](CC(C)C)C(=O)N[C@@H](CCC(=O)O)C(=O)N[C@@H](Cc1ccccc1)C(=O)O` [NS52967-2981], for which the “T cell response [SFC]” value in assay [3] was 586 SFC. This compound also registered an IC50 in assay [4] of 48 nM.
Regarding AEQTGVSHNL [NS2B1412-1421], the IC50 in assay [5] stood at 67 nM.
Compound GEIGAIALDF [NS31598-1607] came in with an IC50 in assay [5] of 40 nM.
As for “NS2A8-15: DENV-2 derived H-2^b restricted dominant CD8+ T cell epitope (FSLGVLGM)”, the “lower serum DENV RNA levels, peptide-immunized vs mock-immunized mice” value in assay [6] turned out to be 350 fold.

The term IC50 denotes the concentration that inhibits the measured activity by half.

Values taken from patent US10308689B2, “Dengue virus (DV) polypeptide sequences, T cell epitopes and methods and uses thereof” (LA JOLLA INSTITUTE FOR ALLERGY AND IMMUNOLOGY, priority 2010, dated 2019).
